≈ marks a conversion by molar mass, not a printed value. Where two headings read alike, the source gives them in different places. Blank lines part the entries; values can stand above or below the compound they belong to. Non-standard residues stand in square brackets, D forms with d. Residues, ends and D or L forms follow the SMILES beside them. ξ: configuration not given here. *: point of attachment. Tos = Cc1ccc(S(=O)(=O)*)cc1; βNA = c1ccc2cc(N*)ccc2c1; NHPh = c1ccc(N*)cc1; ξA = CC(N)C(=O)O
Experiments:
C. albicans = experiment: Antimicrobial MIC, agar cup diffusion; assay type: cell-based; conditions: Candida albicans, read-out: MIC (minimum inhibitory concentration)
A. niger = experiment: Antimicrobial MIC, agar cup diffusion; assay type: cell-based; conditions: Aspergillus niger, read-out: MIC (minimum inhibitory concentration)
K. pneumoniae = experiment: Antimicrobial MIC, agar cup diffusion; assay type: cell-based; conditions: Klebsiella pneumoniae, read-out: MIC (minimum inhibitory concentration)
P. falciparum strain W2 = experiment: In vitro antimalarial assay; assay type: cell-based; conditions: Plasmodium falciparum, W2; P. falciparum, 48 h, >99% of parasites inhibited from developing to schizonts
[1] = tested on: Plasmodium berghei infection in mice; experiment: In vivo antimalaria test; conditions: Plasmodium berghei, P. berghei infected mice, oral
Experimental: Experimental Design and Treatment of Mice. Methods of Peter et al.[30] and Kalra et al.[31] for antiplasmodial assay against Plasmodium berghei infection in mice with some modifications were employed. About eighty infected mice were randomly divided into five groups, each having […] mice. The inoculum was prepared from a donor mouse with rising parasitemia of 60.42%. After 7 days of infection, animals begin to receive treatment (100 and 200 mg/kg b wt.) of the synthesized compounds (7a–7n) for 12 days with constant check of the percentage of parasitemia after a 4-day interval. Artemisinin (100 and 200 mg/kg body weight.) was given to the other mice in group three as positive control, group four was not treated and group five was not infected. All the compounds and the drugs were given orally by using a standard intragastric tube. For all parasitemia determination, blood samples were collected from tail snip of each mouse and thin smears prepared and stained with 10% Giemsa solution. The uniform fields of each stained slide (for each mouse) were examined under microscope with an oil immersion objective of 100X magnification power and average percent of parasitemia was determined.
To determine the in vivo activity, the compounds were tested against P. berghei NK(65 Strain) infection mice., the animals were obtained from Nigeria institute for Trypanosoma and onchocercarioses Research (NTIR) Vom, Plateau State Nigeria. The permission and approval for the use of animals in this experiment were granted by the Animal Ethics Committee, Federal College of Vetrenary Medical Laboratory, Vom, Plateau State. Method of Peter et al.[30], for antiplasmodial assay against P. berghei in mice with some modification were employed. Artemisimin was used as treated control of the experiments. The percentage inhibition of parasite multiplication was calculated comparing the treated group with untreated group by means of the following formula[39] [(A − B)/A] × 100; where A = parasitaemia in the untreated group and B = parasitemia in the test group. […] Most of the compounds were active against P. berghei after 7 days post-infection by reducing the parasiteamia by at least 40% when in a dose of 100 mg/kg (Table 5). The inhibition of parasitaemia increased on 12th day post infection for almost all the compounds. […] However in consideration of the compounds ability to inhibit parasitaemia to the control drug. […] These compounds should be considered for further studies because of its promising activities.

E. coli = experiment: Antimicrobial MIC, agar cup diffusion; assay type: cell-based; conditions: Escherichia coli, read-out: MIC (minimum inhibitory concentration)
B. subtilis = experiment: Antimicrobial MIC, agar cup diffusion; assay type: cell-based; conditions: for MIC: Bacillus subtilis, B. subtilis, read-out: MIC (minimum inhibitory concentration)
S. typhi = experiment: Antimicrobial MIC, agar cup diffusion; assay type: cell-based; conditions: Salmonella enterica, read-out: MIC (minimum inhibitory concentration)
Haematological analysis = assay type: in vivo, mice
Source text: (§1) Twenty-four hours before the injecting the compounds, the blood sample of five mice was taken and it was also taken after the last day of treatment, the animals were sacrificed by cervical dislocation and the blood samples were collected by heart puncture. The blood samples for haematological parameters (red blood cell (RBC) count, white blood cell (WBC) count, packed cell volume (PCV), and hemoglobin (HGB)) were collected into EDTA bottles and analyzed using an automated machine (Automated CBC Analyzer: Sysmex KX-21).
The blood samples for haematological parameters (red blood cell (RBC) count, white blood cell (WBC) count, packed cell volume (PCV), and haemoglobin (HGB)) were collected into EDTA bottles and analyzed using an automated machine (Automated CBC Analyzer: Sysmex KX-21) (Table 8). From the analysis, even though there is a decrease in the value of RBC, PCV and HB, it is observed that there is no significant changes in the parameters that were analyzed for the control and the test compounds.

[2] = Renal or kidney function test; assay type: in vivo; conditions: mice, 10 mg/kg
Source text: as §1, with “KX-21). Kidney function tests carried out with the blood of the rats fed with the sulfonamide derivatives were, creatinine and albunim. The method reported by Kaplan and Tengv[33] was used in the determination of creatinine.” for “KX-21).”

Liver function tests = assay type: in vivo; parameters: Glucose: unit not given here; conditions: mice, 10 mg/kg
Source text: as §1, with “KX-21). The liver function tests carried out with the blood of the rats fed with the sulfonamide derivatives were aspartate aminotransperase (AST), alanine transaminase (ALT) and alkaline phosphatase (ALP). Standard laboratory procedure according to Reitman and Franke[32] was used for the determination of parameters.” for “KX-21).”

[3] = 168 h, read-out: % inhibition 7 days post-treatment (100 mg/kg), day 7
[4] = 168 h, read-out: % inhibition 7 days post-treatment (200 mg/kg), day 7
[5] = 288 h, read-out: % inhibition 12 days post-treatment (100 mg/kg), day 12
[6] = 288 h, read-out: % inhibition 12 days post-treatment (200 mg/kg), day 12

MIC (C. albicans): 21.7 µg/mL (≈ 70.9 µM) | MIC (A. niger): 47.1 µg/mL (≈ 154 µM)
Compound: OC(Cn1cncn1)(Cn1cncn1)c1ccc(F)cc1F [FLU, Fluconazole, reference compound]

Compound: Cc1ccc(S(=O)(=O)NC(C)C(=O)NCC(=O)Nc2ccc(F)cc2)cc1 (centres unmarked) [Compound 7k, N-(2-((4-fluorophenyl)amino)-2-oxoethyl)-2–(4-methylphenylsulfonamido)propanamide]
MIC (K. pneumoniae): 79 µg/mL (≈ 201 µM) | MIC (P. falciparum strain W2): 0.53 µM (≈ 0.209 µg/mL) | inhibition in vivo at 100 mg/kg [1, 3]: 40.4% | inhibition in vivo at 200 mg/kg [1, 4]: 54.9% | inhibition in vivo at 100 mg/kg [1, 5]: 44.3% | inhibition in vivo at 200 mg/kg [1, 6]: 56.4% | MIC (E. coli): 316 µg/mL (≈ 803 µM) | MIC (B. subtilis): 371 µg/mL (≈ 943 µM) | MIC (S. typhi): 3160 µg/mL (≈ 8030 µM) | MIC (C. albicans): 63.1 µg/mL (≈ 160 µM) | MIC (A. niger): 316 µg/mL (≈ 803 µM)

Compound: Cc1ccc(S(=O)(=O)NC(C)C(=O)NCC(=O)Nc2ccccc2)cc1 (centres unmarked) [Compound 7m, 2–(4-methylphenylsulfonamido)-N-(2-oxo-2-(phenylamino)ethyl)propanamide] (Tos-[ξA]-Gly-NHPh)
MIC (K. pneumoniae): 138 µg/mL (≈ 368 µM) | MIC (P. falciparum strain W2): 1.87 µM (≈ 0.702 µg/mL) | inhibition in vivo at 100 mg/kg [1, 3]: 33.5% | inhibition in vivo at 200 mg/kg [1, 4]: 71.4% | inhibition in vivo at 100 mg/kg [1, 5]: 29.3% | inhibition in vivo at 200 mg/kg [1, 6]: 74% | MIC (E. coli): 123 µg/mL (≈ 328 µM) | MIC (B. subtilis): 129 µg/mL (≈ 344 µM) | activity against Bacillus compared with ciprofloxacin (B. subtilis; in words): greater activity against Bacillus than ciprofloxacin | MIC (S. typhi): 57 µg/mL (≈ 152 µM) | MIC (C. albicans): 7940 µg/mL (≈ 21100 µM) | MIC (A. niger): 56 µg/mL (≈ 149 µM)

Compound: Cc1ccc(S(=O)(=O)NC(C)C(=O)NCC(=O)Nc2ccc3ccccc3c2)cc1 (centres unmarked) [Compound 7n, 2–(4-methylphenylsulfonamido)-N-(2-(naphthalene-2-ylamino)-2-oxoethyl)propanamide] (Tos-[ξA]-Gly-βNA)
MIC (P. falciparum strain W2): 2.34 µM (≈ 0.996 µg/mL) | inhibition in vivo at 100 mg/kg [1, 3]: 47.8% | inhibition in vivo at 200 mg/kg [1, 4]: 63.8% | inhibition in vivo at 100 mg/kg [1, 5]: 49.1% | inhibition in vivo at 200 mg/kg [1, 6]: 71.7% | MIC (E. coli): 123 µg/mL (≈ 289 µM) | melting point: 174 to 176 °C | MIC (S. typhi): 617 µg/mL (≈ 1450 µM) | MIC (C. albicans): 155 µg/mL (≈ 364 µM) | MIC (A. niger): 39 µg/mL (≈ 91.7 µM)

Compound: CC(NS(=O)(=O)c1ccccc1)C(=O)NCC(=O)Nc1cccc(F)c1 (centres unmarked) [Compound 7c]
MIC (K. pneumoniae): 129 µg/mL (≈ 340 µM) | HB (Haematological analysis; After treatment): 9.8 g/dL | PCV (Haematological analysis; After treatment): 33% | RBC (Haematological analysis; After treatment): 6.0 × 10^6 mm^3 | WBC (Haematological analysis; After treatment): 9.0 × 10^3 mm^3 | HB (Haematological analysis; Before treatment): 14.5 g/dL | PCV (Haematological analysis; Before treatment): 38% | RBC (Haematological analysis; Before treatment): 7.5 × 10^6 mm^3 | WBC (Haematological analysis; Before treatment): 10.3 × 10^3 mm^3 | MIC (P. falciparum strain W2): 0.72 µM (≈ 0.273 µg/mL) | inhibition in vivo at 100 mg/kg [1, 3]: 48.3% | inhibition in vivo at 200 mg/kg [1, 4]: 40.2% | inhibition in vivo at 100 mg/kg [1, 5]: 51.3% | inhibition in vivo at 200 mg/kg [1, 6]: 48.7% | Albumin ([2]; After): 3.0 g/dL | Creatinine ([2]; After): 0.3 mg/dL | Albumin ([2]; Before): 3.5 g/dL | Creatinine ([2]; Before): 0.3 mg/dL | MIC (E. coli): 372 µg/mL (≈ 980 µM) | melting point: 125 to 127 °C | MIC (B. subtilis): 3470 µg/mL (≈ 9140 µM) | MIC (S. typhi): 2690 µg/mL (≈ 7090 µM) | MIC (C. albicans): 3470 µg/mL (≈ 9140 µM) | ALT (Liver function tests; After): 23.5 µ/L | AST (Liver function tests; After): 61.5 µ/L | Bilirubin (Liver function tests; After): 0.5 mg/dL | Glucose (Liver function tests; After): 5.0 | T.P. (Liver function tests; After): 5.5 g/dL | ALT (Liver function tests; Before): 20.5 µ/L | AST (Liver function tests; Before): 62.0 µ/L | Bilirubin (Liver function tests; Before): 0.3 mg/dL | Glucose (Liver function tests; Before): 5.6 | T.P. (Liver function tests; Before): 5.8 g/dL

Reference: paper PMC6713104, “New peptide derived antimalaria and antimicrobial agents bearing sulphonamide moiety” (Journal of Enzyme Inhibition and Medicinal Chemistry, 2019)
